From patent US6413974B1, “6,9,-disubstituted 2-[trans-(4-aminocyclohexyl) amino] purines” (Aventis Pharmaceuticals Inc., priority 1998, dated 2002)
Where “and” joins values, the source holds several entries; their conditions need not be identical. Equal entries are not always repeated. Structures can show the parent of a compound that is named as a salt. Where two headings read alike, the source gives them in different places.

Experiments:
[1] = target: T1, cdk2/cyclin E (Homo sapiens, UniProt P24941); assay: Cyclin-Dependent Kinase 2 Assay (cdk-2 inhibition); format: biochemical; conditions: GST-Rb substrate, 30 min at 30° C.
T1 construct: made in house; host or cells: insect cells (baculovirus co-infection)
Procedure, shortened: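 GST-Rb bound to glutathione-Sepharose beads (0.5 μg/well) as substrate in 50 mM HEPES pH 7.5, 10 mM MgCl2, 1 mM EGTA. Recombinant cdk2/cyclin E at 0.1 μg per 100 μl, 30 min at 30 °C. Reaction stopped by filtration, TNEN washes, scintillation counting.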

[2] = test system: DU 145; assay: In vitro tumor cell proliferation, DU 145; format: cell-based, human
Procedure, shortened: (§1)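 Cells seeded overnight at 37° C, then exposed to drug 3 days, medium and drug renewed, plus 4 more days; TCA-fixed and sulforhodamine B stained. Alternatively CyQUANT read-out after 3 days' drug exposure, plates frozen at −80° C.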

[3] = test system: PC-3; assay: In vitro tumor cell proliferation, PC-3; format: cell-based, human; conditions: read-out: In vitro Tumor Cell Proliferation (IC50, μM) Prostate PC-3
Procedure, shortened: as §1

[4] = test system: HCT-15; assay: In vitro tumor cell proliferation, HCT-15; format: cell-based, human; conditions: read-out: In vitro Tumor Cell Proliferation (IC50, μM) Colon HCT-15
Method: (§2) The proliferation of tumor cells was measured using a sulforhodamine B assay as described in Skehan, P., et al., J. Natl. Cancer Inst. […] Tumor cells were harvested with trypsin-EDTA, cells that excluded trypan blue were counted, added to 96-well plates and incubated overnight at 37° C. Drug was added to the wells following dilution in culture medium. Three days later, the medium was removed and replenished with medium containing fresh drug and incubated an additional 4 days. The cells were then fixed with 0.1 ml 10% trichloroacetic acid for 60 min at 4° C. The plates were rinsed five times with tap water, air-dried and stained for 30 min with 0.4% sulforhodamine B in 1% acetic acid and air-dried.
(§3) Alternatively, the CyQUANT cell proliferation assay was used to quantify tumor cell proliferation. Tumor cells were harvested with trypsin-EDTA, cells that excluded trypan blue were counted, added to 96-well plates and incubated overnight at 37° C. Drug was added to the wells following dilution in culture medium. Three days later the medium was removed and the plates frozen at −80° C. for at least 30 minutes.

[5] = test system: HT-29; assay: In vitro tumor cell proliferation, HT-29; format: cell-based, human; conditions: read-out: In vitro Tumor Cell Proliferation (IC50, μM) Colon HT-29 (converted)
Procedure, shortened: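 HT-29 human colon adenocarcinoma cells plated overnight at 37° C., then exposed to drug for 3 days, medium with fresh drug replaced for a further 4 days. Cells fixed with 10% TCA and stained with 0.4% sulforhodamine B; alternatively, CyQUANT read after 3 days of drug exposure.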

[6] = test system: A549; assay: In vitro tumor cell proliferation, A549; format: cell-based, human; conditions: read-out: In vitro Tumor Cell Proliferation (IC50, μM) Lung A549
Procedure, shortened: as §1

[7] = target: T2, cdk4/cyclin D1 (Homo sapiens, UniProt P11802); assay: Cyclin-dependent kinase 4 Assay; format: biochemical; conditions: cdk4/cyclin D1, GST-Rb substrate, 10 μM ATP, 30 min at 37° C.; read-out: CDK4 Inhibition IC50
T2 construct: made in house; host or cells: Sf9 insect cells (Bac-to-Bac baculovirus, pFastBac)
Procedure, shortened: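 Insect-cell lysate of coexpressed human cdk4/cyclin D1 (0.1 μg) phosphorylated bead-bound GST-Rb (0.5 μg) in 50 mM HEPES pH 7.5, 10 mM MgCl2, 1 mM EGTA for 30 min at 37 °C. Filters were washed with TNEN and scintillation-counted; IC50 values derived.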

[8] = test system: DMS-114; assay: In vitro tumor cell proliferation, DMS-114; format: cell-based, human; conditions: read-out: In vitro Tumor Cell Proliferation (IC50, μM) Lung DMS-114
Procedure, shortened: as §1

[9] = test system: MCF-7; assay: In vitro tumor cell proliferation, MCF-7; format: cell-based, human; conditions: read-out: In vitro Tumor Cell Proliferation (IC50, μM) Breast MCF-7
Method: as §2, §3
MCF7 is a human breast adenocarcinoma, hormone-dependent (HTB 22);

[10] = test system: MDA-MB-231; assay: In vitro tumor cell proliferation, MDA-MB-231; format: cell-based, human; conditions: read-out: In vitro Tumor Cell Proliferation (IC50, μM) Breast MDA-MB-231
Procedure, shortened: as §1

[11] = Homo sapiens, PC-3, values without *
[12] = values without *, dihydrochloride
[13] = Homo sapiens, HCT-15, values without *
[14] = Homo sapiens, HT-29, values without *
[15] = Homo sapiens, A549, values without *
[16] = Homo sapiens, DMS-114, values without *
[17] = Homo sapiens, MCF7, values without *
[18] = Homo sapiens, MDA-MB-231, values without *
[19] = Homo sapiens, DU-145, values without *, read-out: In vitro Tumor Cell Proliferation (IC50, μM) Prostate DUI45
[20] = values without *, dihydrochloride, read-out: In vitro Tumor Cell Proliferation (IC50, μM) Prostate DUI45

T2 sequence (P11802 whole entry): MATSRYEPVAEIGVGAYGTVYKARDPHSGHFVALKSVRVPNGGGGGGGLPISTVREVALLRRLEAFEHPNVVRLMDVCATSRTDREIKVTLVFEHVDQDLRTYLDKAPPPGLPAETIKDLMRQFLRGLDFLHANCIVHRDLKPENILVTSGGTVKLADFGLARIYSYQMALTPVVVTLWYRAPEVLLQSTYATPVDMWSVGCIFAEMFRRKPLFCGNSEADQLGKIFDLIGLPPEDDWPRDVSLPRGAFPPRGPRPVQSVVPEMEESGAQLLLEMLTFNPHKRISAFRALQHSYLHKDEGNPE
T2 sequence (P24385 whole entry partner): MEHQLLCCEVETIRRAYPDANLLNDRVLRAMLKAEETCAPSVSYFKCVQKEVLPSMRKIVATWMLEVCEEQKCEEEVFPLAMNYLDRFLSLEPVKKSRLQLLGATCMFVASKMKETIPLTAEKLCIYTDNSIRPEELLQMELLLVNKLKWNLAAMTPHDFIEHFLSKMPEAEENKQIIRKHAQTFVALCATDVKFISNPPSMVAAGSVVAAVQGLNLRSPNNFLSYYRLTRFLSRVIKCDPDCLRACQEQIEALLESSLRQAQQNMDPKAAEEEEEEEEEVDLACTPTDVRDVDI

Row | Structure (SMILES) | IC50 [1] | IC50 [3, 11] [µM] | IC50 [3, 12] | IC50 [4, 13] [µM] | IC50 [4, 12] [µM] | IC50 [5, 14] [µM] | IC50 [5, 12] | IC50 [6, 15] [µM] | IC50 [6, 12] [µM] | IC50 [7] | IC50 [8, 16] [µM] | IC50 [8, 12] [µM] | IC50 [9, 17] [µM] | IC50 [9, 12] [µM] | IC50 [10, 18] [µM] | IC50 [10, 12] [µM] | IC50 [2, 19] [µM] | IC50 [2, 20] | other results
1 | N[C@H]1CC[C@H](Nc2nc(NCc3cccc(I)c3)c3ncn(C4CCCC4)c3n2)CC1 [Example 1, 2-[Trans-(4-aminocyclohexyl)amino]-6-(3-iodobenzylamino)-9-cyclopentylpurine dihydrochloride] | 50 nM and 70 nM and 85 nM and 37 nM and 55 nM and 65 nM | 1.9 | 1.1 µM and 1.2 µM | 2.2 | 1.9 | 0.9 | 1 µM and 1.6 µM | 1.1 | 1 | 2000 nM | 1.2 | 0.9 | 0.7 | 0.6 | 1.1 | 0.8 |  |  | IC50 ([2]; Homo sapiens, DU-145, read-out: In vitro Tumor Cell Proliferation (IC50, μM) Prostate DUI45, values without *): 2 µM; IC50 ([2]; read-out: In vitro Tumor Cell Proliferation (IC50, μM) Prostate DUI45, values without *, dihydrochloride): 1.6 µM and 1.2 µM
2 | CCCCNc1nc(N[C@H]2CC[C@H](N)CC2)nc2c1ncn2C1CCCC1 [Example 3, 2-[Trans-(4-aminocylcohexyl)amino]-6-(butylamino)-9-cyclopentylpurine dihydrochloride] | 33 nM and 17 nM | 0.37 |  | 3.9 | 3.6 | 0.92 | 1.5 µM | 0.6 | 0.63 | 390 nM and 660 nM | 0.49 | 0.73 | 0.59 | 0.81 | 0.95 | 1.2 | 0.54 | 0.6 µM | 
3 | N[C@H]1CC[C@H](Nc2nc(NCc3ccc(Cl)c(Cl)c3)c3ncn(C4CCCC4)c3n2)CC1 [Example 10, 2-[Trans-(4-aminocyclohexyl)amino]-6-[(3,4-dichlorobenzyl)amino]-9-cyclopentylpurine dihydrochloride] | 140 nM | 0.97 | 0.79 µM | 1.9 |  | 1.6 |  | 1.7 | 0.98 | 190 nM and 300 nM | 1.5 |  | 1.1 | 1.8 | 1.2 | 1.7 | 0.97 | 1.8 µM | 
4 | C[C@@H](Nc1nc(NC2CCC(N)CC2)nc2c1ncn2C1CCCC1)c1ccccc1 (stereo partly drawn) [Example 16, (R)-2-[Trans-(4-aminocyclohexyl)amino]-6-[(α-methylbenzylamino]-9-cyclopentylpurinedihydrochloride] | 720 nM | 5 | 2.8 µM | 9.4 | 7.8 | 6.3 | 5.1 µM | 6.4 | 5.8 | 11000 nM and 6700 nM | 7.4 | 5.1 | 4.1 | 2.5 | 5.9 | 4.4 | 6.2 | 5 µM | 
5 | N[C@H]1CC[C@H](Nc2nc(NCCCc3ccccc3)c3ncn(C4CCCC4)c3n2)CC1 [Example 24, 2-[Trans-(4-aminocyclohexyl)amino]-6-[3-(phenyl)propylamino]-9-cyclopentylpurine dihydrochloride] | 130 nM | 0.13 | 0.23 µM | 1.4 | 1 | 0.16 | 0.17 µM and 0.28 µM | 0.15 |  | 570 nM and 900 nM | 0.14 | 0.13 | 0.34 | 0.47 |  |  | 0.39 | 0.38 µM and 0.51 µM | IC50 ([2]; Homo sapiens, DU-145, values marked * (mark not explained), read-out: In vitro Tumor Cell Proliferation (IC50, μM) Prostate DUI45): 0.54 µM; IC50 ([3]; Homo sapiens, PC-3, values marked * (mark not explained)): 0.2 µM; IC50 ([4]; Homo sapiens, HCT-15, values marked * (mark not explained)): 0.99 µM; IC50 ([5]; Homo sapiens, HT-29, values marked * (mark not explained)): 0.19 µM; IC50 ([6]; Homo sapiens, A549, values marked * (mark not explained)): 0.11 µM; IC50 ([8]; Homo sapiens, DMS-114, values marked * (mark not explained)): 0.07 µM; IC50 ([9]; Homo sapiens, MCF7, values marked * (mark not explained)): 0.42 µM; IC50 ([10]; Homo sapiens, MDA-MB-231, values marked * (mark not explained)): 0.24 µM
6 | CC(C)CCNc1nc(N[C@H]2CC[C@H](N)CC2)nc2c1ncn2C1CCCC1 [Example 36, 2-[Trans-(4-aminocyclohexyl)amino]-6-[(3-methylbutyl)amino]-9-cyclopentylpurine dihydrochloride] | 120 nM | 0.68 |  | 3.1 | 3.3 | 1.5 | 1.9 µM | 0.8 | 0.94 | 1100 nM and 600 nM | 0.88 | 0.91 | 1.1 | 1.3 | 1.4 | 2 | 0.89 | 1.1 µM | 
7 | N[C@H]1CC[C@H](Nc2nc(NCCc3ccccc3)c3ncn(C4CCCC4)c3n2)CC1 [Example 43, 2-[Trans-(4-aminocyclohexyl)amino-6-[2-(phenyl)ethylamino]-9-cyclopentylpurinedihydrochloride] | 160 nM | 0.89 | 0.92 µM | 3.4 | 3.2 | 2.2 | 2.8 µM | 1.1 | 1 | 250 nM | 0.92 | 1.2 | 1.2 | 1.6 | 2.1 | 2.5 | 1.2 | 1.4 µM | 
